According to the NIST ThermoML archive (doi:10.1021/je9010097):
± gives the expanded uncertainty stated by the source.

Experiment: excess molar enthalpy (molar enthalpy of mixing); xn = mol fraction of the nth substance listed
Conditions: 308.15 K, 101 kPa, Liquid, Flow calorimetry

C1COCCN1 [tetrahydro-1,4-oxazine] + C1CCCCC1
Conditions | excess molar enthalpy [kcal/mol]
x2 = 0.1 | 0.146 ± 0.00502
x2 = 0.201 | 0.261 ± 0.00837
x2 = 0.3 | 0.354 ± 0.011
x2 = 0.401 | 0.418 ± 0.0129
x2 = 0.5 | 0.446 ± 0.0139
x2 = 0.6 | 0.436 ± 0.0134
x2 = 0.7 | 0.392 ± 0.0122
x2 = 0.801 | 0.312 ± 0.0098
x2 = 0.9 | 0.195 ± 0.00645

C1COCCN1 [tetrahydro-1,4-oxazine] + C1CCOCC1
Conditions | excess molar enthalpy [kcal/mol]
x2 = 0.101 | 0.039 ± 0.00143
x2 = 0.199 | 0.0703 ± 0.00239
x2 = 0.3 | 0.0946 ± 0.00311
x2 = 0.401 | 0.109 ± 0.00335
x2 = 0.501 | 0.115 ± 0.00359
x2 = 0.6 | 0.11 ± 0.00335
x2 = 0.702 | 0.0963 ± 0.00311
x2 = 0.8 | 0.0731 ± 0.00239
x2 = 0.899 | 0.0411 ± 0.00143

C1COCCN1 [tetrahydro-1,4-oxazine] + C1COCCO1
Conditions | excess molar enthalpy [kcal/mol]
x2 = 0.108 | 0.0296 ± 0.000956
x2 = 0.201 | 0.0507 ± 0.00167
x2 = 0.303 | 0.0681 ± 0.00215
x2 = 0.403 | 0.0772 ± 0.00239
x2 = 0.506 | 0.0791 ± 0.00239
x2 = 0.6 | 0.0753 ± 0.00239
x2 = 0.703 | 0.0645 ± 0.00215
x2 = 0.803 | 0.0495 ± 0.00167
x2 = 0.905 | 0.0272 ± 0.000956
